# According to patent EP0335745A1, “Process for producing pyrid-4-ones” (THE ROYAL FREE HOSPITAL SCHOOL OF MEDICINE, priority 1988, dated 1989):
# Read-outs that look alike come from different tables or passages of the source.
# Assays:
# [1] = system: iron loaded ⁵⁹Fe transferrin labelled mice; test: Iron mobilisation (59Fe excretion) from iron loaded 59Fe transferrin labelled mice; type: in vivo; settings: dose 10mg; for %⁵⁹Fe excretion X ± SE: mice 31-35g, mean of 3 days before chelator administration = 100%
# Description: Iron mobilisation from iron loaded ⁵⁹Fe transferrin labelled mice by the 1-alkyl-2-ethyl-3-hydroxypyrid-4-ones was studied as previously described.
# [2] = pKa determination of the chelators; type: physicochemical
# [3] = n-octanol/water (PBS) partition coefficient (K par) of the chelators and their iron complexes; type: physicochemical; settings: for K par Chelator / K par Iron Complex: n-octanol/water (PBS), Table 4; for K par Chelator / Kpar Chelator: free chelator; for K par Iron Complex: iron complex of the chelator; for Kpar Chelator / Kpar iron Complex: n-octanol/phosphate buffer saline (PH 7.3), Table 7
# Method: The n-octanol/water (PBS) partition coefficients (K par) of the chelators and their iron complexes were determined using a previously determined method.
# (§1) The partition coefficients of the chelators and their iron complexes were determined using a mixture of n-octanol and phosphate buffer saline at pH 7.3 as previously described. The effect of the chelators on the incorporation of iron containing traces of ⁵⁹Fe into red blood cells was studied as previously described by incubating the chelator iron complexes with packed red blood cells at 37°C, withdrawing aliquots, centrifuging and measuring the incorporation of ⁵⁹Fe into the red blood cells.
# human transferrin = target: T1, human transferrin (Homo sapiens, UniProt P02787); test: Iron mobilisation from 59Fe transferrin by dialysis against chelator solution; type: biochemical; settings: chelator 4x10⁻³M, 37°C, pH 7.3, 2 x PBS
# T1 construct: purchased Sigma
# T1 sequence (P02787 20-698): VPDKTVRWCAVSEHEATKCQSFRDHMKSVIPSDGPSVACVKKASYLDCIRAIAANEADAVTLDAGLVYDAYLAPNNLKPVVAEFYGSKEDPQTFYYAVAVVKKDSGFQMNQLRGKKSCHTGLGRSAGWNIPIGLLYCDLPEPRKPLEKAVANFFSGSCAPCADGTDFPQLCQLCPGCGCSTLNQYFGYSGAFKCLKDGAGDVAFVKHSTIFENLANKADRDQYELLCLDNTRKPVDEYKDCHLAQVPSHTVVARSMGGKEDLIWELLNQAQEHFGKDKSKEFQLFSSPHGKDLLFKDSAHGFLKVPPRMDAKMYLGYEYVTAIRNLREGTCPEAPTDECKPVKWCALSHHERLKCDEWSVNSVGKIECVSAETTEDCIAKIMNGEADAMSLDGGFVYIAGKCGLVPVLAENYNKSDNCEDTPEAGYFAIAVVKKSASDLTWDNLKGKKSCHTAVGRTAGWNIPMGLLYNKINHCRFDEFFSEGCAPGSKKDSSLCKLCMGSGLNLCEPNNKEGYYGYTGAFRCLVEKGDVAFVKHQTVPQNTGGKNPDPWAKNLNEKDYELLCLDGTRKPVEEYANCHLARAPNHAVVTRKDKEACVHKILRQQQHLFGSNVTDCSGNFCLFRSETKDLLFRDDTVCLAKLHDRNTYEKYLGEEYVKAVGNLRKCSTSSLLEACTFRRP
# Method: Human apotransferrin (Sigma) was radioactively labelled with ⁵⁹Fe and saturated with iron as previously described. Samples (1.5ml) of the ⁵⁹Fe transferrin (0.54mg protein, 0.75 µg iron, 0.07 µCi ⁵⁹Fe) were enclosed in a dialysis bag and dialysed against a chelator solution (10ml, 4mM) by continuous stirring at 37°C. Samples (1ml) of the dialysate were removed at different time intervals, the ⁵⁹Fe activity measured and then returned back into the incubation mixture. Ferritin solution and haemosiderin solid were isloated from a spleen of a thalassemia patient and samples containing the same amount of iron (0.25mg, 1.5ml) were dialysed at 37°C against a chelator solution (4mM, 10ml) over a 12 day period. The amount of iron immobilised was estimated spectrophotometrically by measuring the visible absorbance of the dialysate and by using the extinction coefficient of the chelator iron complex (Fig 3, Table 6). All the protein incubations with the chelators were carried out in the 2xPBS pH 7.3.
# Haemosiderin (0.25mg iron, 16.5% w/w iron, […]) ferritin (0.25mg iron, 10.7% w/w iron, 1.5ml) and transferrin (0.75ug iron, 0.54mg protein, 0.07 uCi ⁵⁹Fe, 1.5ml) in dialysis bags were dialysed against the chelators (4x10⁻³M, 10ml) at 37°C, pH 7.3 in 2 x PBS by continuous stirring. Iron mobilisation was estimated from samples of the dialysates taken at different time intervals as explained in the Materials and Methods section.
# haemosiderin = test: Iron mobilisation from haemosiderin by dialysis against chelator solution; type: biochemical, human; settings: chelator 4x10⁻³M, 37°C, pH 7.3, 2 x PBS, * = duplicate samples
# Method: • Fig 1: pH titration of the chelator iron complexes. Chelators (2mM in 0.1M NaCl, 25ml) and freshly prepared iron (III) chloride (0.5mM in 0.1M NaCl, 25ml) were mixed and titrated with HCl (10M) and NaOH (5M). The absorbance of the chelator iron mixture at 460nm was measured after each pH change. 1-Methyl- (Δ), 1-ethyl- (□) and 1-propyl- (◇) -2-ethyl-3-hydroxypyrid-4-ones. • Fig 2: • A. Job plots of the 1-alkyl-2-ethyl-3-hydroxypyrid-4-ones with iron at pH 7.3. Chelators (2mM in […] 0-5ml) and iron (2mM in 0.1M NaCl, 0-5ml) were mixed at different molar ratios to a final volume of 5ml. 4 x PBS (5ml), pH 7.3 was then added and the absorbance at 460nm measured. […] Theoretical Job plots for 1:1, 2:1, 3:1 chelator:iron complexes were obtained using the maximum absorbance values from the Job plots in A. 1:1 (◇) 2:1 (□), 3:1 (Δ). • Fig. 3: Iron mobilisation from human ferritin and haemosiderin using 1-alkyl-2-ethyl-3-hydroxypyrid-4-ones. […] The progress of the reaction was followed by measuring the absorbance at 460nm of the dialysate at different time intervals.
# Human apotransferrin (Sigma) was radioactively labelled with ⁵⁹Fe and saturated with iron as previously described. […] Samples (1ml) of the dialysate were removed at different time intervals, the ⁵⁹Fe activity measured and then returned back into the incubation mixture. […]
# male Sprague Dawley rats = test: Lethal dose range in rats, intraperitoneal administration; type: in vivo
# Method: The three 1-alkyl-3-hydroxy-2-methylpyrid-4-ones dissolved in phosphate buffer saline were administered intraperitoneally to groups of three male Sprague Dawley rats (60-90g) at different doses until a near maximum non-lethal dose was established.
# red blood cells = test: Red blood cell permeability: incorporation of 59Fe into red blood cells in the presence of the chelators; type: cell-based; settings: iron 2.5 x 10⁻⁵M, chelators 18 x 10⁻⁵M, packed red blood cells, 37°C
# Method: as §1
# loaded mice and rabbits = settings: doses of up to 200 mg/kg, also non iron loaded mice; cited from earlier work
# [4] = pKa of the hydroxyl group, read-out: Pka(2)
# [5] = male, Sprague Dawley, rat, in vivo, ip
Compound,%⁵⁹Fe excretion X ± SE ([1]; ip),"pKa [2, 4]",pKa ([2]; read-out: PKa(1)),K par Chelator [3],K par Iron Complex [3],Percentage Iron Removal Transferrin ⁵⁹Fe 1h (human transferrin),Percentage Iron Removal Transferrin ⁵⁹Fe 2h (human transferrin),Percentage Iron Removal Transferrin ⁵⁹Fe 8h (human transferrin),Percentage Iron Removal Haemosiderin 24h (haemosiderin; 24h),Percentage Iron Removal Haemosiderin 12d (haemosiderin; 12d),%⁵⁹Fe excretion X ± SE ([1]; ig),"death of mice before the completion of the treatment ([1]; mice, ip or ig, 11 administrations)",Lethal Dose (range) (male Sprague Dawley rats; [5]),⁵⁹Fe incorporation (%) 20 min (red blood cells),⁵⁹Fe incorporation (%) 1h (red blood cells),Kpar Chelator [3],Kpar iron Complex [3],increasing iron excretion (loaded mice and rabbits),"Lethal Dose (range) (male Sprague Dawley rats; rats, intraperitoneally, range of doses, the higher being lethal and the lower a non-lethal dose)"
"CC(=O)N(O)CCCCCNC(=O)CCC(=O)N(O)CCCCCNC(=O)CCC(=O)N(O)CCCCCN [Desferrioxamine, reference compound]",381 ± 49%,–,–,–,–,–,–,–,–,–,–,–,–,–,–,–,–,–,–
"CCCn1ccc(=O)c(O)c1CC [Example 6, 2-ethyl-3-hydroxy-1-propylpyrid-4-one]",334 ± 64%,10.1,3.4,4.2,9.68,23.2,50.3,97.6,27.8,74.5,163 ± 25%,caused death to two mice,–,–,–,–,–,–,–
"CCCn1ccc(=O)c(O)c1C [Example 3, 3-Hydroxy-2-methyl-1-propylpyrid-4-one]",–,10.2,3.7,–,–,–,–,–,–,–,–,–,150 to 200 mg/kg,85%,86%,–,–,–,–
"Cc1c(O)c(=O)ccn1C [Example 1, 1,2-Dimethyl-3-hydroxypyrid-4-one]",–,9.7,3.3,0.19,0.24,37.3,69.9,99.5,–,–,–,–,600 to 700 mg/kg,5.0%,5.0%,0.19,0.24,effective,–
"CCc1c(O)c(=O)ccn1CC [Example 5, 1,2-diethyl-3-hydroxypyrid-4-one]",371 ± 46%,10.1,3.7,1.4,0.28,24.9,51.8,96.6,–,–,309 ± 22%,–,–,–,–,–,–,–,–
"CCn1ccc(=O)c(O)c1C [Example 2, 1-Ethyl-3-hydroxy-2-methylpyrid-4-one]",–,10.3,3.6,0.37,0.52,–,–,–,–,–,–,–,–,5.0%,10%,0.47,0.52,effective,400 to 500 mg/kg
"CCc1c(O)c(=O)ccn1C [Example 4, 2-Ethyl-3-hydroxy-1-methylpyrid-4-one]",415 ± 42%,9.8,3.7,0.4,0.02,36.0,56.6,100.0,–,–,362 ± 53%,–,–,–,–,–,–,–,–
